The source of these data is patent publication US7943636B2 (dated 2011).

Regarding `CCn1nc2c(N)nc3ccccc3c2c1CC1(F)CCN(C(=O)NC(C)C)CC1`, the melting point fell in the range of 205 to 207 °C.
As for `CCn1nc2c(N)nc3ccccc3c2c1CC1(F)CCOCC1`, the figure is 275 to 277 °C; as for `CCn1nc2c(N)nc3ccccc3c2c1CC1(O)CCSCC1`, 251.5 to 255 °C.
As for `COCCn1nc2c(N)nc3ccccc3c2c1CC1CCOCC1`, the figure is 189 to 190 °C; as for `Cn1nc2c(N)nc3ccccc3c2c1CC1(F)CCN(S(C)(=O)=O)CC1`, 283 to 285 °C; as for `CCCn1nc2c(N)nc3ccccc3c2c1CC1(F)CCN(C(=O)NC(C)C)CC1`, 227 to 229 °C (dec.).
As for `CCCNC(=O)N1CCC(O)(Cc2c3c(nn2CC)c(N)nc2ccccc23)CC1`, the figure is 208.5 to 210 °C.
In turn, `CCn1nc2c(N)nc3ccccc3c2c1CC1(F)CCN(C(C)=O)CC1` displayed a melting point of 228 to 230 °C.
On to `CCCn1nc2c(N)nc3ccccc3c2c1CC1(O)CCOCC1`, for which the melting point lay in the range of 209 to 211 °C.
As for `CCn1nc2c(N)nc3ccccc3c2c1CC1(O)CCOCC1`, the figure is 253 to 255 °C; as for `Cn1nc2c(N)nc3ccccc3c2c1CC1(O)CCOCC1`, 260 to 262 °C (dec.).
With `CCn1nc2c(N)nc3c(c2c1CC1(O)CCCCC1)CCCC3`, the melting point was in the range of 232 to 234 °C.
The molecule `CCn1nc2c(N)nc3ccccc3c2c1CC1(O)CCN(S(C)(=O)=O)CC1` registered a melting point of 268 to 270 °C.
As for `CCn1nc2c(N)nc3ccccc3c2c1CC1CCOCC1`, the figure is 226 to 228 °C.
Consider `CCn1nc2c(N)nc3ccccc3c2c1CC1(F)CCN(S(C)(=O)=O)CC1`, for which the melting point is 269 to 271 °C.
As for `CCn1nc2c(N)nc3ccccc3c2c1CC1(O)CCC1`, the figure is 245 to 247 °C; as for `Cn1nc2c(N)nc3ccccc3c2c1CC1(F)CCOCC1`, 252 to 254 °C.
As for `CCn1nc2c(N)nc3ccccc3c2c1CC1(O)CCCC1`, the figure is 256 to 259 °C; as for `CCCn1nc2c(N)nc3ncccc3c2c1CC1CCOCC1`, 252 to 255 °C.
As for `CC(C)NC(=O)N1CCC(F)(Cc2c3c(nn2C)c(N)nc2ccccc23)CC1`, the figure is 241 to 244 °C.
`CC(=O)N1CCC(F)(Cc2c3c(nn2C)c(N)nc2ccccc23)CC1` had a melting point of 241 to 243 °C.
On to `CCCn1nc2c(N)nc3ccccc3c2c1CC1(F)CCN(S(C)(=O)=O)CC1`, for which the melting point is 268 to 270 °C (dec.).
As for `CCn1nc2c(N)nc3ccccc3c2c1CC1(O)CCN(C(C)=O)CC1`, the figure is 231 to 232.5 °C; as for `CCCn1nc2c(N)nc3ccccc3c2c1CC1(O)CCC1`, 191 to 193 °C.
As for `CCn1nc2c(N)nc3ccccc3c2c1CC1(O)CCCCC1`, the figure is 211.5 to 213 °C.
`COCCn1nc2c(N)nc3ncccc3c2c1CC1CCOCC1` had a melting point of 230 to 233 °C.
As for `CCCn1nc2c(N)nc3ccccc3c2c1CC1CCOCC1`, the figure is 218 to 220 °C.
